Target: Homo sapiens butyrylcholinesterase (hBuChE) (Homo sapiens, UniProt P06276)
Experiment: Inhibition of hBuChE (Ellman assay, 4PL dose-response)

Chain of Homo sapiens butyrylcholinesterase (hBuChE) (P06276 29-602): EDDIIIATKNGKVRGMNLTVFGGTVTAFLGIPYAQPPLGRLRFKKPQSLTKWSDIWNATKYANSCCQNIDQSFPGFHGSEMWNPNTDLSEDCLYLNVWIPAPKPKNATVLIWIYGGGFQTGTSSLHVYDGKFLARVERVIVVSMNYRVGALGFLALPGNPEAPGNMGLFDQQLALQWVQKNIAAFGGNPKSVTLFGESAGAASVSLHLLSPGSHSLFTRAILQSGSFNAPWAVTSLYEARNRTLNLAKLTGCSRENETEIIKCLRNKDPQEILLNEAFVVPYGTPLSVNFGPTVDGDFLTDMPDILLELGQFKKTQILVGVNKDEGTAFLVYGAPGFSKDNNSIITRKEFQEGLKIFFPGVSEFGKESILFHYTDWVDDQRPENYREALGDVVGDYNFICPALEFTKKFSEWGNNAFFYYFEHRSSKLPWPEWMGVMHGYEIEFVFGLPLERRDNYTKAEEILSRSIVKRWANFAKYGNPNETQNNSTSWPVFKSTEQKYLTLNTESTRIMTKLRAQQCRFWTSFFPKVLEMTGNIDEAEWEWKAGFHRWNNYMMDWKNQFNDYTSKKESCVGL

SMILES: CN(C)c1ccc(C(=C2C=CC(=[N+](C)C)C=C2)c2ccc(N(C)C)cc2)cc1 [CV, tris(4-(dimethylamino)phenyl)methylium chloride]
- IC50: 900 nM

Source: publication PMC6151500 (Molecules : A Journal of Synthetic Chemistry and Natural …, 2017)
